Reference: US20160046573A1, “IDENTIFYING PATIENT RESPONSE TO S1P RECEPTOR MODULATOR ADMINISTRATION” (Novartis AG, priority 2013, published 2016)

Key:
[1] = Enzyme mapping: metabolite formation by HLM pool; assay type: in vitro ADME, human; conditions: HLM 108 pmol/mL, 30 min
Protocol: A pool of liver microsomes prepared from 47 individual donors was obtained from BD Biosciences (Woburn, Mass., USA, catalog N^o 452161, Lot 26). Pathogenicity testing of each of the livers in the pool was performed using a PCR protocol. […] The total P450 content was 360 pmol/mg protein. […]
After 30 min at −80° C. […] Sample solutions were analyzed by HPLC combined with radiodetection. […]
Microsomes prepared from baculovirus infected insect cells (BTI-TN-5B1-4) expressing one single human cytochrome P450 isoenzyme were used to assess the involvement of specific enzymes in the biotransformation of [14C]BAF312. […] Lower metabolism activities were also observed in incubation with CYP3A4, while some trace metabolism was detected with other CYP isoenzymes (2B6, 2C8, 2C19, 2J2, 3A5, 1A1).

CYP1A1 = biological target: T1, CYP1A1 (Homo sapiens, UniProt P04798); assay: Enzyme mapping: metabolite formation by recombinant P450 isoenzyme; assay type: in vitro ADME; conditions: 30 pmol/mL, 30 min
T1 construct: purchased BD Biosciences 456211; host or cells: baculovirus infected insect cells (BTI-TN-5B1-4)
T1 sequence (P04798 1-512): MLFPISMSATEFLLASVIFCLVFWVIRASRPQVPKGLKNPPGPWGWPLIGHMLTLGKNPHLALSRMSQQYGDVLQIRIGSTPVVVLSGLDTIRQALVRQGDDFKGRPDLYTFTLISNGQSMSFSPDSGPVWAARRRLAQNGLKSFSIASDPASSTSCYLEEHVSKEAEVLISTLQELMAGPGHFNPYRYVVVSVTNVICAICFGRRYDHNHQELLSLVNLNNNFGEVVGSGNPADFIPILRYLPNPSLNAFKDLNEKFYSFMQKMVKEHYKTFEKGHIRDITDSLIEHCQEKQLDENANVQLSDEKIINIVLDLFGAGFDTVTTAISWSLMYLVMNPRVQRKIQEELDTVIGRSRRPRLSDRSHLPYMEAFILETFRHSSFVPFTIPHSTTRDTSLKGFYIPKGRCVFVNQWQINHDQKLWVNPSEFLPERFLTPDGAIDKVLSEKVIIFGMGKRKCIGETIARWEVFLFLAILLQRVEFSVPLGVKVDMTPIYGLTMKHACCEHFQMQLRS
Protocol: (§1) Microsomes prepared from baculovirus infected insect cells (BTI-TN-5B1-4) expressing the following human P450 enzymes and the insect cell membrane preparations (negative control) were obtained from BD Biosciences (Woburn, Mass., USA).
(§2) The final concentrations are given in parentheses.
(§3) After 30 min at −80° C. […] The supernatant was withdrawn. […] Sample solutions were analyzed by HPLC combined with radiodetection. (for HLPC method, see Section 1.6)
(§4) Mean specific CYP enzyme concentrations in human liver microsomes were obtained from literature values (Rowland Yeo K, Rostami-Hodjegan A and Trucker GT (2004)] Abundance of cytochromes P450 in human liver: a meta-analysis. Br. J. Clinical Pharmacology; 57:687-688). For some recombinant human CYPs, the enzyme kinetic parameters were estimated by calculation assuming Michaelis-Menten type behavior for the two concentrations used, solving a linear equation system for 2 linear equations with 2 variables: […]
(§5) Microsomes prepared from baculovirus infected insect cells (BTI-TN-5B1-4) expressing one single human cytochrome P450 isoenzyme were used to assess the involvement of specific enzymes in the biotransformation of [14C]BAF312. Incubation experiments with a panel of 21 recombinant human CYPs (CYP1A1, 1A2, 1B1, 2A6, 2B6, 2C8, 2C9*1, 2C18, 2C19, 2D6*1, 2E1, 2J2, 3A4, 3A5, 3A7, 4A11, 4F2, 4F3A, 4F3B, 4F12 and CYP19) were conducted under similar conditions for each isoenzyme with 10 and 40 μM BAF312 incubation and 30 pmol CYP/mL for 30 min. […] Lower metabolism activities were also observed in incubation with CYP3A4, while some trace metabolism was detected with other CYP isoenzymes (2B6, 2C8, 2C19, 2J2, 3A5, 1A1).

CYP2B6 = biological target: T2, CYP2B6 (Homo sapiens, UniProt P20813); assay: as above; assay type: in vitro ADME; conditions: for Metabolism Rate: 30 pmol/mL, 30 min
T2 construct: purchased BD Biosciences 456210; host or cells: baculovirus infected insect cells (BTI-TN-5B1-4)
T2 sequence (P20813 1-491): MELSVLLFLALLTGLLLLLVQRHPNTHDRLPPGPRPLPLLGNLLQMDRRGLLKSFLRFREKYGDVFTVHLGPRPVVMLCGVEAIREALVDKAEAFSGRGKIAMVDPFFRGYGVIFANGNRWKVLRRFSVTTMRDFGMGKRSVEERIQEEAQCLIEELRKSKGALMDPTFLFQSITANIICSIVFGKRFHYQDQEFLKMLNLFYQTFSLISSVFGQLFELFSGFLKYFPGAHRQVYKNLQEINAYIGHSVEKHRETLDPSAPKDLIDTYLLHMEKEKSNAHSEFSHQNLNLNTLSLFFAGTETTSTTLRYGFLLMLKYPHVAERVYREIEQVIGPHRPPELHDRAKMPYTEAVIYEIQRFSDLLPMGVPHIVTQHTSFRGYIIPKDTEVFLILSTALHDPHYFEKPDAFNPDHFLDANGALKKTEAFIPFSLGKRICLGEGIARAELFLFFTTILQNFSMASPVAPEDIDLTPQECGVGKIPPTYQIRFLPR
Protocol: as §1, §2, §3, §4, §5

CYP2C9*1 = biological target: T3, CYP2C9*1 (Homo sapiens, UniProt P11712); assay: as above; assay type: in vitro ADME; conditions: 30 pmol/mL, 30 min
T3 construct: purchased BD Biosciences 456258; host or cells: baculovirus infected insect cells (BTI-TN-5B1-4)
Protocol: as §1, §2, §3, §5

CYP3A4 = biological target: T4, CYP3A4 (Homo sapiens, UniProt P08684); assay: as above; assay type: in vitro ADME; conditions: 30 pmol/mL, 30 min
T4 construct: purchased BD Biosciences 456202; host or cells: baculovirus infected insect cells (BTI-TN-5B1-4)
T4 sequence (P08684 whole entry): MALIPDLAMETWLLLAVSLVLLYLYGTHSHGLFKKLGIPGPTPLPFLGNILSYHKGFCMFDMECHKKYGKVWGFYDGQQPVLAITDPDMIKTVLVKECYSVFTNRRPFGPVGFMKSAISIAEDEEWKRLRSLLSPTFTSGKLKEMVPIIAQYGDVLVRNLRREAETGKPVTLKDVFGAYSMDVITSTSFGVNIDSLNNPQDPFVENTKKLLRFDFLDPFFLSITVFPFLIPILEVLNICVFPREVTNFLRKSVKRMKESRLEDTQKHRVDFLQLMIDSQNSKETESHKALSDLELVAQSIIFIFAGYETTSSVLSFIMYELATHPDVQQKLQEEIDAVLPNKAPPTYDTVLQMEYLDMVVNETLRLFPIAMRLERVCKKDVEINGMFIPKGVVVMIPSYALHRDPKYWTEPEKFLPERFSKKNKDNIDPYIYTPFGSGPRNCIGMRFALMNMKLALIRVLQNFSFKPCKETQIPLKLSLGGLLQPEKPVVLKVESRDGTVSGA
Protocol: as §1, §2, §3, §5

CYP3A5 = biological target: T5, CYP3A5 (Homo sapiens, UniProt P20815); assay: as above; assay type: in vitro ADME; conditions: 30 pmol/mL, 30 min
T5 construct: purchased BD Biosciences 456235; host or cells: baculovirus infected insect cells (BTI-TN-5B1-4)
T5 sequence (P20815 whole entry): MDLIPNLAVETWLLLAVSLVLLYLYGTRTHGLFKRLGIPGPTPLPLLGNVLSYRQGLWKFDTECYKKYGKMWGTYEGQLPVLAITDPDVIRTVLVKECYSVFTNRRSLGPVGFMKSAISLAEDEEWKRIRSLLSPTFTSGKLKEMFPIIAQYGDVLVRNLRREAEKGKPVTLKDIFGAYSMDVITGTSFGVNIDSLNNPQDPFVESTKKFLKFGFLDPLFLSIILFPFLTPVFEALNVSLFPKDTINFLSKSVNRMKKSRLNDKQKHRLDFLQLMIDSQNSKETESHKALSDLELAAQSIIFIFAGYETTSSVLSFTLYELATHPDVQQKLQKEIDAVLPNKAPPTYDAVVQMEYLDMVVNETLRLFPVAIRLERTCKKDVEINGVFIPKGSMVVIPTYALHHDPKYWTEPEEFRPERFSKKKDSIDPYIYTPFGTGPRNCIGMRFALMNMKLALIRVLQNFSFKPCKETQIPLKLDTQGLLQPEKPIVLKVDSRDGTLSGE
Protocol: as §1, §2, §3, §5

Structure (SMILES): CCc1cc(/C(C)=N/OCc2ccc(C3CCCCC3)c(C(F)(F)F)c2)ccc1CN1CC(C(=O)O)C1 [BAF312, 1-{4-[1-(4-cyclohexyl-3-trifluoromethyl-benzyloxyimino)-ethyl]-2-ethyl-benzyl}-azetidine-3-carboxylic acid]
- Metabolism Rate ([1]; 10 μM BAF312): 5.9 pmol/min/nmol CYP 450
- Metabolism Rate ([1]; 40 μM BAF312): 25.3 pmol/min/nmol CYP 450
- Metabolism Rate (CYP1A1; 10 μM BAF312): 13.3 pmol/min/nmol CYP 450
- Metabolism Rate (CYP1A1; 40 μM BAF312): 28.9 pmol/min/nmol CYP 450
- Metabolism Rate (CYP2B6; 10 μM BAF312): 17.8 pmol/min/nmol CYP 450
- Metabolism Rate (CYP2B6; 40 μM BAF312): 44.4 pmol/min/nmol CYP 450
- Vmax (CYP2B6; CYP 2B6, estimated by solving the Michaelis-Menten equation for the 2 substrate concentrations): 88.9 pmol/(min · nmol CYP)
- Contribution (% total Rel. CL) (CYP2B6; CYP 2B6, metabolic clearance in human liver microsomes): 0.4%
- Rel. CL (CYP2B6; CYP 2B6, relative to abundance in human liver microsomes): 0.04 μl/(min · nmol total CYP)
- Km at 30 min (CYP2B6; human, pH 7.4, CYP 2B6, estimated by solving the Michaelis-Menten equation for the 2 substrate concentrations): 40 µM
- Metabolism Rate (CYP2C9*1; 10 μM BAF312): 129.4 pmol/min/nmol CYP 450
- Metabolism Rate (CYP2C9*1; 40 μM BAF312): 211.1 pmol/min/nmol CYP 450
- Metabolism Rate (CYP3A4; 10 μM BAF312): 23.3 pmol/min/nmol CYP 450
- Metabolism Rate (CYP3A4; 40 μM BAF312): 53.3 pmol/min/nmol CYP 450
- Metabolism Rate (CYP3A5; 10 μM BAF312): 3.9 pmol/min/nmol CYP 450
- Metabolism Rate (CYP3A5; 40 μM BAF312): 2.2 pmol/min/nmol CYP 450
